Holding throughout (test): High-throughput kinase assay
Format in all cases: biochemical

The target in one test is PRKCD (PKC delta) (Homo sapiens, UniProt Q05655). Particulars: 50 nM; read-out: Percent inhibition of kinase activity in vitro, PRKCD (PKC delta). How it is done: (§1) Screening of Compounds 1-4 against several kinases identified two prominent targets of these compounds as the Aurora A kinase and calcium dependent protein kinase C isoforms α, βI, βII and […] (Tables 1 to 3). IC50s for these two targets were obtained by plotting inhibition levels at 500 nM, 100 nM, 50 nM and 10 nM (FIG. 3). These kinases are directly involved in pathways controlling cell differentiation programs, metastasis signaling, as well as EMT and CSC programming and their overexpression was reported to predict decreased metastasis-free survival.
Chain of PRKCD (PKC delta) (Q05655 whole entry, canonical isoform): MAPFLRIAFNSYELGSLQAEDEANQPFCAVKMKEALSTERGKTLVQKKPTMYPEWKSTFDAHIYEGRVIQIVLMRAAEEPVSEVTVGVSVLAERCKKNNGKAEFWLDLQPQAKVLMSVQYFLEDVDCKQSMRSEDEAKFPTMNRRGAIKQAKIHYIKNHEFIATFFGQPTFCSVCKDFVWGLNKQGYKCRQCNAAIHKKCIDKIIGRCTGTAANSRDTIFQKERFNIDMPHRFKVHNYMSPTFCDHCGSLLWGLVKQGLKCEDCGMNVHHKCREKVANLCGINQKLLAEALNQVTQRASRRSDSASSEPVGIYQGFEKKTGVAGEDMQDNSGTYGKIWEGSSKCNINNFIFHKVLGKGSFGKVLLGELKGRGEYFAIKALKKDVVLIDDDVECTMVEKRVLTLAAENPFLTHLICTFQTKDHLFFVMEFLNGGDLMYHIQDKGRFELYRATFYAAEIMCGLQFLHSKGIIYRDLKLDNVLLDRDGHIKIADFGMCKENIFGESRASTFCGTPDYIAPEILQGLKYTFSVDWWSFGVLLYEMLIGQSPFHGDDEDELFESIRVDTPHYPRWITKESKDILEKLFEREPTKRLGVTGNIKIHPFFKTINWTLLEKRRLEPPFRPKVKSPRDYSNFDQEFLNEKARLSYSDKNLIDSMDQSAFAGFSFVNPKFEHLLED

For the next test, the target named is FGFR1 (Homo sapiens, UniProt P11362). Conditions: read-out: Percent inhibition of kinase activity in vitro, FGFR1; for inhibition at 0.1 µM: 100 nM; for inhibition at 0.5 µM: 500 nM. On the procedure:
as §1

The next test concerns the target EGFR (ErbB1) (Homo sapiens, UniProt P00533). Conditions: read-out: Percent inhibition of kinase activity in vitro, EGFR (ErbB1); for inhibition at 0.1 µM: 100 nM; for inhibition at 0.5 µM: 500 nM. How it is done:
as §1

For a further test, the target named is T1, PRKD1 (PKC mu) (Homo sapiens, UniProt Q15139).
T1 sequence (Q15139 1-912): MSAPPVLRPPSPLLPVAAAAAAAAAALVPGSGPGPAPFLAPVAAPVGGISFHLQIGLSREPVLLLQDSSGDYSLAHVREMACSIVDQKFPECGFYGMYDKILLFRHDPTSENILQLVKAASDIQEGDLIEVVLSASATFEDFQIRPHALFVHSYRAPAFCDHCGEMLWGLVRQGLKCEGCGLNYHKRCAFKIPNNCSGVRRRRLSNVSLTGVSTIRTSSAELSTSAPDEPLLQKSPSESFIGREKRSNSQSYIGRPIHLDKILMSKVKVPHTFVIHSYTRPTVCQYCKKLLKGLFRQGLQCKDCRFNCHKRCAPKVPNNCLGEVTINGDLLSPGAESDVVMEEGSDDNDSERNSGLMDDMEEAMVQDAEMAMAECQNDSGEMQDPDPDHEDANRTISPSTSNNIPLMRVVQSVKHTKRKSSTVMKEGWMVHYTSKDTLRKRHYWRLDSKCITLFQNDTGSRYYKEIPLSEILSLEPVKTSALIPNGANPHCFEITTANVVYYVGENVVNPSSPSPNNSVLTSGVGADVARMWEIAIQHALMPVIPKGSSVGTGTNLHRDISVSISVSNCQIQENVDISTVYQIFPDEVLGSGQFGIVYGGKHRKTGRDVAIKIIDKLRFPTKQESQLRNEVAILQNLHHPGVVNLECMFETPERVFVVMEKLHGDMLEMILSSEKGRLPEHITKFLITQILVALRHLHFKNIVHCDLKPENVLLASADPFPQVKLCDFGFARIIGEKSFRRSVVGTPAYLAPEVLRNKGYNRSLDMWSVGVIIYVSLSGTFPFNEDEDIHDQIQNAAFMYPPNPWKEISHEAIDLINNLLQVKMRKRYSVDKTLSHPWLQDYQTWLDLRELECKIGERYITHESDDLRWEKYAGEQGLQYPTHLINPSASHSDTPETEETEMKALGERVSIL
Conditions: 50 nM; read-out: Percent inhibition of kinase activity in vitro, PRKD1 (PKC mu). How it is done:
as §1

A further test deals with T2, PRKCE (PKC epsilon) (Homo sapiens, UniProt Q02156).
T2 sequence (Q02156 1-737): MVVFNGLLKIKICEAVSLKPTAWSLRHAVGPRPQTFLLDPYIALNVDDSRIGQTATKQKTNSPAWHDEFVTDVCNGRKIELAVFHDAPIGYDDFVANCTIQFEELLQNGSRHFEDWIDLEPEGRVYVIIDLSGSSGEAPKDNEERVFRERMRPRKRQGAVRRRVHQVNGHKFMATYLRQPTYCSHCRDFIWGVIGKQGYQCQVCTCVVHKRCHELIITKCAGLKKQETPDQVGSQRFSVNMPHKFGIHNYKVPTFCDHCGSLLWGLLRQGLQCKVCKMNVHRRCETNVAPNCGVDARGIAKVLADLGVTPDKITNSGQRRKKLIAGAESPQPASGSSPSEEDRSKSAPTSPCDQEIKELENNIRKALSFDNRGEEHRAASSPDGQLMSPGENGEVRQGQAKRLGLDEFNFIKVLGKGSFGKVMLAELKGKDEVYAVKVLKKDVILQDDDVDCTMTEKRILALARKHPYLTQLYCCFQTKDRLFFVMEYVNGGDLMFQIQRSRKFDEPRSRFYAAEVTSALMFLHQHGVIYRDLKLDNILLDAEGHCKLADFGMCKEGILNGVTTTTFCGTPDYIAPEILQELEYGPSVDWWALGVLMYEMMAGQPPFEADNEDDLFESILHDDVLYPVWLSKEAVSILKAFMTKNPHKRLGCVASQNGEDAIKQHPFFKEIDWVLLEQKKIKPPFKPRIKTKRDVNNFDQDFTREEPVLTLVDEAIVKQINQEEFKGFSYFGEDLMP
Particulars: 50 nM; read-out: Percent inhibition of kinase activity in vitro, PRKCE (PKC epsilon). How it is done:
as §1

The target in a further test is PIK3CA/PIK3R1 (Homo sapiens, UniProt P42336). Particulars: read-out: Percent inhibition of kinase activity in vitro, PIK3CA/PIK3R1; for inhibition at 0.1 µM: 100 nM; for inhibition at 0.5 µM: 500 nM. On the procedure: as §1
The next test has as its target MET (cMet) (Homo sapiens, UniProt P08581). Conditions: read-out: Percent inhibition of kinase activity in vitro, MET (cMet); for inhibition at 0.1 µM: 100 nM; for inhibition at 0.5 µM: 500 nM. How it is done:
as §1

The target in another test is PRKCB1 (PKC beta I) (Homo sapiens, UniProt P05771). Conditions: 50 nM; read-out: Percent inhibition of kinase activity in vitro, PRKCB1 (PKC beta I). On the procedure:
as §1

A further test addresses AURKB (Aurora B) (Homo sapiens, UniProt Q96GD4). Conditions: read-out: Percent inhibition of kinase activity in vitro, AURKB (Aurora B); for inhibition at 0.1 µM: 100 nM; for inhibition at 0.5 µM: 500 nM. On the procedure:
as §1

The target in a further test is SRC (Homo sapiens, UniProt P12931). Conditions: read-out: Percent inhibition of kinase activity in vitro, SRC; for inhibition at 0.1 µM: 100 nM; for inhibition at 0.5 µM: 500 nM. How it is done: as §1
Chain of SRC (P12931 whole entry): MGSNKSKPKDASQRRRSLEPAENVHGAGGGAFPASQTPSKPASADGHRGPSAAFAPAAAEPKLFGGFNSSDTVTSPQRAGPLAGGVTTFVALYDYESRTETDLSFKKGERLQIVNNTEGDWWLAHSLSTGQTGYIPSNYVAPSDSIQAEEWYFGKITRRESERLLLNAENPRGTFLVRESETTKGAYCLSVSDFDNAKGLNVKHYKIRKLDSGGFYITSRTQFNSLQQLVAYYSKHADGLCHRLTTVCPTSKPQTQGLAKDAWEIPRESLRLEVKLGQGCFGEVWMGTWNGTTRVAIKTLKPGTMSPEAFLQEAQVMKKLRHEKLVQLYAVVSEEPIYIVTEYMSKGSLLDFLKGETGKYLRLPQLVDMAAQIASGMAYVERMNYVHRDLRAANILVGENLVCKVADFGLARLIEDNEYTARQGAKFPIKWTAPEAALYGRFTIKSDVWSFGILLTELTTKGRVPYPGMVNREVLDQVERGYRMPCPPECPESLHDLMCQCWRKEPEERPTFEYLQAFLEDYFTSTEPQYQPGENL
Another test deals with IGF1R (Homo sapiens, UniProt P08069). Conditions: read-out: Percent inhibition of kinase activity in vitro, IGF1R; for inhibition at 0.1 µM: 100 nM; for inhibition at 0.5 µM: 500 nM. How it is done: as §1

Chain of EGFR (ErbB1) (P00533 25-1210): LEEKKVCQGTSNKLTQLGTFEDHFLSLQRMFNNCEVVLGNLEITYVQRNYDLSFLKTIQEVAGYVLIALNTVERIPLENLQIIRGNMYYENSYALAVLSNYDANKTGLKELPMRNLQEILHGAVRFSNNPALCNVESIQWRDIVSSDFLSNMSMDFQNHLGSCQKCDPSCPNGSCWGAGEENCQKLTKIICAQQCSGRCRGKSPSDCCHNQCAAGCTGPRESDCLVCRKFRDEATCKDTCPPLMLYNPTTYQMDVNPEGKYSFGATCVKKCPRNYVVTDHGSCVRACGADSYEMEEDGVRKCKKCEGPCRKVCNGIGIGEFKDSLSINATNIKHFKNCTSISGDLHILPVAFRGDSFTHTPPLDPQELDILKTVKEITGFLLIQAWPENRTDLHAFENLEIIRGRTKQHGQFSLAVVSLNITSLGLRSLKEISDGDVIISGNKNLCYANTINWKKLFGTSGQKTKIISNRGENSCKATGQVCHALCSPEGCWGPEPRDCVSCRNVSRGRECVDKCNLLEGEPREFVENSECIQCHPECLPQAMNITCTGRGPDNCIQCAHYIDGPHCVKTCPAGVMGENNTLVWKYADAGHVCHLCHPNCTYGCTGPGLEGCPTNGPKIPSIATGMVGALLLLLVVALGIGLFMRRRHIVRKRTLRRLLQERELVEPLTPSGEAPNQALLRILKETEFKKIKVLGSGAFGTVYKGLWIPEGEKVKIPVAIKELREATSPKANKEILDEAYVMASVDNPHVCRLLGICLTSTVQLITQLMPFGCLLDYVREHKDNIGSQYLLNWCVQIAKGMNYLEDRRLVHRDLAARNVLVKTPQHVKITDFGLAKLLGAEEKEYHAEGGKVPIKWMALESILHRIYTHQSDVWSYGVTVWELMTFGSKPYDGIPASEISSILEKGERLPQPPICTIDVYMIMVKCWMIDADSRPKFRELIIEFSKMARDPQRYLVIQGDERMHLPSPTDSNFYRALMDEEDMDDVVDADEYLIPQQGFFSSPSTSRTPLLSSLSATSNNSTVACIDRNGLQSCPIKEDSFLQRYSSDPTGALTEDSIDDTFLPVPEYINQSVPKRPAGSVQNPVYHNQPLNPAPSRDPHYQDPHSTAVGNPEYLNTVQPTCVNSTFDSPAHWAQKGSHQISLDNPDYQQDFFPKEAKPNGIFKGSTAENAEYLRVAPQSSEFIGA
Chain of FGFR1 (P11362 22-822): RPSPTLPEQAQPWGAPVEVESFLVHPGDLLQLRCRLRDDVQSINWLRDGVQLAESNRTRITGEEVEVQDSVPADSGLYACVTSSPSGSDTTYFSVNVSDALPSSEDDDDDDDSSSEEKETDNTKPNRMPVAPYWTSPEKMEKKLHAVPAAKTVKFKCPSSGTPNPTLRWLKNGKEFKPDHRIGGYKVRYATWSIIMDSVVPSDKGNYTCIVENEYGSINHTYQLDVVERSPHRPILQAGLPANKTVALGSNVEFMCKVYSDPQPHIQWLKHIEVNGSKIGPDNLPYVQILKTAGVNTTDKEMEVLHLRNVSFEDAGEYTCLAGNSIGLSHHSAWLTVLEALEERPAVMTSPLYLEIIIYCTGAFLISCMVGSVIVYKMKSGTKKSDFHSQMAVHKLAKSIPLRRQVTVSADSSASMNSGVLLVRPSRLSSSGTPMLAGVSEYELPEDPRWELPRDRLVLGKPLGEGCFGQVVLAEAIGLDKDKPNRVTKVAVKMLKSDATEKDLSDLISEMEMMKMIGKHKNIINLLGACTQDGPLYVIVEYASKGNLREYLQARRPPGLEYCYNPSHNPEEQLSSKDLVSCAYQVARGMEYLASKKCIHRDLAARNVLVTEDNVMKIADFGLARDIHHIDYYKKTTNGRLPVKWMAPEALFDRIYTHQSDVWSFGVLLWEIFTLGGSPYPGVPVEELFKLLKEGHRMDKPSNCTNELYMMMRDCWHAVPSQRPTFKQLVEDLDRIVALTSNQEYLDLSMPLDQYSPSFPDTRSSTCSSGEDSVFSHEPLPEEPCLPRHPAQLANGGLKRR
Chain of AURKB (Aurora B) (Q96GD4 whole entry): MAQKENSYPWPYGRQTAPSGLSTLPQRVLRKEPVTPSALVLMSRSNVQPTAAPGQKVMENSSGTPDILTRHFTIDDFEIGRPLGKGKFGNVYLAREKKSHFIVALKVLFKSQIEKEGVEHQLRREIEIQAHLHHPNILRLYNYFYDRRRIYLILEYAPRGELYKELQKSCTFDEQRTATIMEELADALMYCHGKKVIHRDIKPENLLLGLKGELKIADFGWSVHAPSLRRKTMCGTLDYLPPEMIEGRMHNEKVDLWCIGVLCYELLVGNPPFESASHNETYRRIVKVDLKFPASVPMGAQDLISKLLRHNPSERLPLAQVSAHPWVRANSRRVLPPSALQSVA
Chain of MET (cMet) (P08581 25-1390): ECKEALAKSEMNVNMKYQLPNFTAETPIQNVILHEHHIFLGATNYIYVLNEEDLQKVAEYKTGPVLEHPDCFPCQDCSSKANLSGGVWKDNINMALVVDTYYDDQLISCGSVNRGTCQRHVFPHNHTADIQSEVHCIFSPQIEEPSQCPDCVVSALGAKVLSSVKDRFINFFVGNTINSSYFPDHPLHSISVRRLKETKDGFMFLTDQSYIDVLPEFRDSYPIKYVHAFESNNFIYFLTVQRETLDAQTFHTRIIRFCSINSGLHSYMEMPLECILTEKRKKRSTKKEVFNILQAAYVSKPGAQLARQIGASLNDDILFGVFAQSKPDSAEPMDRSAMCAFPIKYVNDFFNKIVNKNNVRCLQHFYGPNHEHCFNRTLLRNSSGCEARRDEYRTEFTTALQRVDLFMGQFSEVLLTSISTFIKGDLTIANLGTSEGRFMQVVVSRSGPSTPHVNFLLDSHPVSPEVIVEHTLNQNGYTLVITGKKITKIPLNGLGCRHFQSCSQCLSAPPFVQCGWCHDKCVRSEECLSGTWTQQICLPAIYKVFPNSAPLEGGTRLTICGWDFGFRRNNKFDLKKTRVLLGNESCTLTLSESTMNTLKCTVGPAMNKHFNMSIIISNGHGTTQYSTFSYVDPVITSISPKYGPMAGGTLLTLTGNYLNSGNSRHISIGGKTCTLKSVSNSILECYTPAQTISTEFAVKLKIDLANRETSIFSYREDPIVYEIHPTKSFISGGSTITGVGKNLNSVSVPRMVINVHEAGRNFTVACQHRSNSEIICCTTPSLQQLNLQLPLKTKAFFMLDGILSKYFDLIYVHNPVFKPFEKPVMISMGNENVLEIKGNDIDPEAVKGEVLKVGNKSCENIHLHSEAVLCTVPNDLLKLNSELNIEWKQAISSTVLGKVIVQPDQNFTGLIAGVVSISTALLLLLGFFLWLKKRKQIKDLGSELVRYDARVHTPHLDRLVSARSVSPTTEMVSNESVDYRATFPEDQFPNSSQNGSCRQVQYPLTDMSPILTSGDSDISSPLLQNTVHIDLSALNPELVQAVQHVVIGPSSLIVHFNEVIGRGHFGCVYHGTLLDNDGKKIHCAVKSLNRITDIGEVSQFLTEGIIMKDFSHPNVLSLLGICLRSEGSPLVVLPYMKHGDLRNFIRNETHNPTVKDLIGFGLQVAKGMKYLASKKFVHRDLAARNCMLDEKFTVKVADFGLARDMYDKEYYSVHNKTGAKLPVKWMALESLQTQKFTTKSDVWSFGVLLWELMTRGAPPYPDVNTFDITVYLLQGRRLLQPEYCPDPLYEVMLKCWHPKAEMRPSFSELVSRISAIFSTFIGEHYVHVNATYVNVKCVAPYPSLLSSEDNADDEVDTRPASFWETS

With `O=c1c2ccccc2[se]n1-c1nc(NC2CCCCC2)c2nc[nH]c2n1` [Compound 1], the inhibition at 0.05 µM on PRKCD (PKC delta) was determined as 0%; on PRKD1 (PKC mu) it was 5%; on PRKCE (PKC epsilon), 6%; on PRKCB1 (PKC beta I), 59%. The inhibition at 0.1 µM at FGFR1 was determined as 0%; at EGFR (ErbB1), 1%; at PIK3CA/PIK3R1, 0%; at MET (cMet), 2%; on AURKB (Aurora B), 12%; at SRC, 1%. For the same compound, the inhibition at 0.1 µM at IGF1R was determined as 0%. Also, the inhibition at 0.5 µM at FGFR1 was 2%; at EGFR (ErbB1), 0%; on PIK3CA/PIK3R1 it was 61%; on MET (cMet), 10%; on AURKB (Aurora B), 25%; on SRC, 5%. In addition, at IGF1R, the inhibition at 0.5 µM is 12%.
Regarding `O=c1c2ccccc2[se]n1-c1nc(NC2CC[Se]C2)c2nc[nH]c2n1` (centres unmarked) [Compound 2], the inhibition at 0.5 µM is 0% at FGFR1; 0% on EGFR (ErbB1); 62% on PIK3CA/PIK3R1; 5% on MET (cMet); 13% at AURKB (Aurora B); 7% on SRC. The inhibition at 0.5 µM at IGF1R stood at 11%. Further, the inhibition at 0.1 µM at PIK3CA/PIK3R1 came to 0%; on MET (cMet) it was 1%; on AURKB (Aurora B), 19%; on SRC it was 4%.
`C[C@@H]1C(Nc2nc(-n3[se]c4ccccc4c3=O)nc3[nH]cnc23)C[C@H]2C[C@@H]1C2(C)C` (some centres unmarked) [Compound 3]: the inhibition at 0.5 µM on FGFR1 was 13%; on EGFR (ErbB1) it was 0%; on PIK3CA/PIK3R1, 53%; on MET (cMet), 17%; on AURKB (Aurora B), 19%; at SRC it was 7%. Also, the inhibition at 0.5 µM at IGF1R is 13%. Further, the inhibition at 0.1 µM amounted to 12% on PIK3CA/PIK3R1, 0% on MET (cMet), 24% on AURKB (Aurora B) and 4% on SRC.
Take `O=c1c2ccccc2[se]n1-c1nc(N[C@H]2CC[Se]C2)c2nc[nH]c2n1` [Compound 4]: the inhibition at 0.05 µM at PRKCD (PKC delta) stood at 0%; on PRKD1 (PKC mu), 7%; on PRKCE (PKC epsilon), 5%; on PRKCB1 (PKC beta I), 95%. The inhibition at 0.1 µM stood at 0% on FGFR1; 0% on EGFR (ErbB1); 0% at PIK3CA/PIK3R1; 4% on MET (cMet); 14% on AURKB (Aurora B); 4% on SRC. Moreover, the inhibition at 0.1 µM at IGF1R came out at 4%.
In the case of `O=C1c2ccccc2CN1c1nc(NC2CCCCC2)c2nc[nH]c2n1` [SLLN-6C, reference compound], the inhibition at 0.05 µM at PRKCD (PKC delta) is 0%; on PRKD1 (PKC mu) it was 6%; at PRKCE (PKC epsilon) it was 4%; on PRKCB1 (PKC beta I), 5%. Also, the inhibition at 0.1 µM at FGFR1 came to 0%; at EGFR (ErbB1) it was 4%; at PIK3CA/PIK3R1, 0%; on MET (cMet), 0%; on AURKB (Aurora B) it was 10%; at SRC, 3%. For the same compound, the inhibition at 0.1 µM on IGF1R was found to be 0%.

Values taken from patent US10711002B2, “Purine compounds and method for the treatment of cancer” (THE ROYAL INSTITUTION FOR THE ADVANCEMENT OF …, priority 2016, dated 2020).
